Test results reported in PubChem BioAssay (NCI).
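Following 48 hours of exposure in 96-well plates, responses at five concentrations were used to interpolate endpoints linearly. TGI: concentration producing complete growth inhibition.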

Experiments:
Experiment in all cases: NCI anticancer screen, dose series, 48 h
[1] = test system: 786-0 renal
[2] = test system: A498 renal
[3] = test system: A549 NSCLC
[4] = test system: ACHN renal
[5] = test system: BT-549 breast
[6] = test system: CAKI-1 renal
[7] = test system: CCRF-CEM leukemia
[8] = test system: COLO 205 colon
[9] = test system: DU-145 prostate
[10] = test system: EKVX NSCLC
[11] = test system: HCC-2998 colon
[12] = test system: HCT-116 colon
[13] = test system: HCT-15 colon
[14] = test system: HL-60(TB) leukemia
[15] = test system: HOP-62 NSCLC
[16] = test system: HOP-92 NSCLC
[17] = test system: HS 578T breast
[18] = test system: HT29 colon
[19] = test system: IGROV1 ovarian
[20] = test system: K-562 leukemia
[21] = test system: KM12 colon
[22] = test system: LOX IMVI melanoma
[23] = test system: M14 melanoma
[24] = test system: MALME-3M melanoma
[25] = test system: MCF7 breast
[26] = test system: MDA-MB-231 breast
[27] = test system: MDA-MB-435
[28] = test system: MDA-N
[29] = test system: MOLT-4 leukemia
[30] = test system: NCI-H226 lung
[31] = test system: NCI-H23 lung
[32] = test system: NCI-H460 lung
[33] = test system: NCI-H522 lung
[34] = test system: NCI/ADR-RES ovarian
[35] = test system: OVCAR-3 ovarian
[36] = test system: OVCAR-4 ovarian
[37] = test system: OVCAR-8 ovarian
[38] = test system: PC-3 prostate
[39] = test system: RPMI-8226 leukemia
[40] = test system: SF-268 CNS
[41] = test system: SF-295 CNS
[42] = test system: SF-539 CNS
[43] = test system: SK-MEL-2 melanoma
[44] = test system: SK-MEL-28 melanoma
[45] = test system: SK-MEL-5 melanoma
[46] = test system: SK-OV-3 ovarian
[47] = test system: SN12C renal
[48] = test system: SNB-19 CNS
[49] = test system: SR leukemia
[50] = test system: SW-620 colon
[51] = test system: T-47D breast
[52] = test system: TK-10 renal
[53] = test system: U251 CNS
[54] = test system: UACC-257 melanoma
[55] = test system: UACC-62 melanoma
[56] = test system: UO-31 renal
[57] = test system: OVCAR-5 ovarian
[58] = test system: RXF 393 renal

`O=C(O)Cc1cccc2c(=O)c3ccccc3oc12` gave a TGI [1] of over 100 µM, a TGI [2] of over 100 µM and a TGI [3] of over 100 µM. The TGI [4] was over 100 µM, the TGI [5] was over 100 µM and the TGI [6] was over 100 µM. For the same molecule, the TGI [7] was over 100 µM, the TGI [8] was over 100 µM and the TGI [9] was over 100 µM. For the same molecule, the TGI [10] was over 100 µM, the TGI [11] was 46 µM and the TGI [12] was over 100 µM. The TGI [13] was over 100 µM, the TGI [14] was over 100 µM and the TGI [15] was over 100 µM. It also gave a TGI [16] of over 100 µM, a TGI [17] of over 100 µM and a TGI [18] of over 100 µM. The TGI [19] was over 100 µM, the TGI [20] was over 100 µM and the TGI [21] was over 100 µM. The TGI [22] was over 100 µM, the TGI [23] was over 100 µM and the TGI [24] was over 100 µM. The TGI [25] was over 100 µM, the TGI [26] was over 100 µM and the TGI [27] was over 100 µM. The TGI [28] was over 100 µM, the TGI [29] was over 100 µM and the TGI [30] was over 100 µM. For the same molecule, the TGI [31] was over 100 µM, the TGI [32] was over 100 µM and the TGI [33] was over 100 µM. The TGI [34] was over 100 µM, the TGI [35] was over 100 µM and the TGI [36] was over 100 µM. For the same molecule, the TGI [37] was over 100 µM, the TGI [38] was over 100 µM and the TGI [39] was over 100 µM. The TGI [40] was over 100 µM, the TGI [41] was over 100 µM and the TGI [42] was over 100 µM. The TGI [43] was 56.5 µM, the TGI [44] was over 100 µM and the TGI [45] was over 100 µM. The TGI [46] was 41.9 µM, the TGI [47] was over 100 µM and the TGI [48] was over 100 µM. It also gave a TGI [49] of over 100 µM, a TGI [50] of over 100 µM and a TGI [51] of 61.7 µM. The TGI [52] was over 100 µM, the TGI [53] was over 100 µM and the TGI [54] was over 100 µM. It also gave a TGI [55] of 77.2 µM and a TGI [56] of over 100 µM.

For `O=Cc1ccc(OCc2cccc(COc3ccc(/C=N\Nc4ccc([N+](=O)[O-])cc4[N+](=O)[O-])cc3)n2)cc1`, the TGI [1] was over 100 µM, the TGI [2] was over 100 µM and the TGI [3] was over 100 µM. For the same molecule, the TGI [4] was over 100 µM, the TGI [5] was over 100 µM and the TGI [6] was over 100 µM. It also gave a TGI [7] of over 100 µM, a TGI [8] of over 100 µM and a TGI [9] of over 100 µM. It also gave a TGI [10] of over 100 µM, a TGI [11] of over 100 µM and a TGI [12] of over 100 µM. It also gave a TGI [13] of over 100 µM, a TGI [14] of over 100 µM and a TGI [15] of over 100 µM. For the same molecule, the TGI [17] was over 100 µM, the TGI [18] was over 100 µM and the TGI [19] was over 100 µM. It also gave a TGI [20] of over 100 µM, a TGI [21] of over 100 µM and a TGI [22] of over 100 µM. For the same molecule, the TGI [23] was over 100 µM, the TGI [24] was over 100 µM and the TGI [25] was over 100 µM. It also gave a TGI [26] of over 100 µM, a TGI [27] of over 100 µM and a TGI [28] of over 100 µM. It also gave a TGI [29] of 80.2 µM, a TGI [30] of over 100 µM and a TGI [31] of over 100 µM. It also gave a TGI [32] of over 100 µM, a TGI [33] of over 100 µM and a TGI [34] of over 100 µM. The TGI [35] was over 100 µM, the TGI [36] was over 100 µM and the TGI [57] was over 100 µM. The TGI [37] was over 100 µM, the TGI [38] was over 100 µM and the TGI [39] was over 100 µM. It also gave a TGI [58] of over 100 µM, a TGI [40] of over 100 µM and a TGI [41] of over 100 µM. The TGI [43] was over 100 µM, the TGI [44] was over 100 µM and the TGI [45] was over 100 µM. It also gave a TGI [47] of over 100 µM, a TGI [48] of over 100 µM and a TGI [49] of 75.3 µM. The TGI [50] was over 100 µM, the TGI [51] was over 100 µM and the TGI [52] was over 100 µM. The TGI [53] was over 100 µM, the TGI [54] was over 100 µM and the TGI [55] was over 100 µM. It also gave a TGI [56] of over 100 µM.
